Reference: EP0023083A1, “Oxodiazole derivatives, processes for their production and pharmaceutical composition containing them” (BEECHAM GROUP PLC, priority 1979, dated 1981)

Tested on: 5-hydroxy tryptamine induced bronchoconstriction
Test: Bronchodilator activity: inhibition of 5-hydroxy tryptamine induced bronchoconstriction (Konzett-Rossler preparation)
Format: in vivo
Details: Cavia porcellus, iv; anaesthetised, artificially respired guinea pig
Protocol: The compounds were examined for their ability to inhibit 5-hydroxy tryptamine induced bronchoconstriction in the anaethetised, artifically respired guinea pig (Konzett-Rossler preparation). The compounds were administered intravenously.

Row | SMILES | ED50 [µg/kg]
1 | CCCCCCC(C)(O)CCN1C(=O)N(C)C(=O)C1CCCCCCCC(C)O (centres unmarked) [Compound 2] | 5.5
2 | CCCCCCC(C)(O)CCN1C(=O)N(C)C(=O)C1C/C=C\CCCCC(C)O (centres unmarked) [Compound 3] | 3.6
